Data from patent publication US6921821B2, “Antagonists of melanin concentrating hormone receptor” (Abbott Laboratories, priority 2002, dated 2005).
Structures can show the parent of a compound that is named as a salt.

Biological target: T1, murine MCHR (Mus musculus, UniProt Q8JZL2)
T1 construct: expressed in transfected cells; host or cells: HEK293
Assay: Assay for release of intracellular calcium (FLIPR, Fluo-4), inhibition of MCH-induced Ca++ flux
Type: cell-based
Settings: test compound at a dose of 10 μM, HEK293 cells expressing the murine MCHR, read-out: inhibition of MCH (MCH induced Ca++ flux / fluorescence)
Method: Assay for Release of Intracellular Calcium
Activation of the melanin concentrating hormone receptor (MCHR) by MCH induces the release of Ca^++ from intracellular stores. This intracellular calcium release is measured using a fluorometric imaging plate reader (FLIPR™, Molecular Devices Corp.) in conjunction with the Ca^++-sensitive dye Fluo-4. Release of Ca^++ from intracellular stores causes an increase in fluorescence of the dye that is proportional to Ca^++ concentration. Briefly, the assays are performed as follows. HEK293 cells expressing the murine MCHR are plated overnight at 50,000 cells/well in 96-well plates. The following day, culture medium is removed and replaced with 100 μl/well of D-PBS (+glucose and sodium pyruvate) containing 2.5 μM Fluo-4AM (Molecular Probes), 0.01% Pluronic F-127 and 2.5 mM probenecid. Cells are loaded with the Fluo-4 dye for at least one hour at room temp. After loading, the cells are washed gently to remove extracellular dye and 100 μl of D-PBS (+glucose and sodium pyruvate) is added to each well. Test compounds are prepared at 40 μM in 4% DMSO. The cell plate is placed in the FLIPR™ and 50 μl/well of test compound is delivered. The calcium signal is followed for 3 minutes to assay for potential agonist activity by the test compounds. Then 50 μl/well of 12 nM mouse MCH (in D-PBS containing 0.1% BSA) is added and the ligand-induced calcium signal is followed for an additional 3 minutes. Antagonist activity as determined by the test compounds ability to inhibit MCH induced Ca^++ flux is calculated as % inhibition as described by the following formula: % inhibition=[1−((fTC−fB)÷(fMCH−fB))]×100, where fTC=MCH-induced fluorescence in the presence of test compound; fMCH=MCH-induced fluorescence in the absence of test compound; and fB=Baseline fluorescence.
MCH (3 nM) usually elicits a response of 30,000-40,000 relative fluorescence units (RFU) with a baseline of about 1000 RFU. Fluo-4 fluorescence is measured at 488 nm, with an exposure of 0.40 sec. and F-stop=2.0 and the laser set at 0.40-0.60 W constant light output.

T1 sequence (Q8JZL2 whole entry): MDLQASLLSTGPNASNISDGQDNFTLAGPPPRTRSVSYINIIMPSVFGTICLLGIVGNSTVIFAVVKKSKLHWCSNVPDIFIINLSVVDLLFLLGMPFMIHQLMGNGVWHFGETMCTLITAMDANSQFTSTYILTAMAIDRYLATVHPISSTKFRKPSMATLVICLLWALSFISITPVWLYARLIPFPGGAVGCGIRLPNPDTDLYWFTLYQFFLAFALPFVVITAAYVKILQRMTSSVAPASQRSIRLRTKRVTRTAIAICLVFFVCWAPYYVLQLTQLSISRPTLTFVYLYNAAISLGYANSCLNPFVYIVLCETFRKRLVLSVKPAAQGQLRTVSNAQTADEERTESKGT

Inhibition at 10 µM, ≥ 50%:
COc1ccc2oc(=O)cc(NC3CCN(Cc4ccc(C)c(C)c4)CC3)c2c1 [II-29, 4-[1-(3,4-Dimethyl-benzyl)-piperidin-4-ylamino]-6-methoxy-chromen-2-one trifluoroacetate]
COc1ccc2oc(=O)cc(NC3CCN(Cc4cccc(C)c4)CC3)c2c1 [II-92, 6-Methoxy-4-[1-(3-methyl-benzyl)-piperidin-4-ylamino]-chromen-2-one trifluoroacetate]
COc1ccc2oc(=O)cc(NC3CCN(Cc4ccc(C(=O)NCCN5CCCCC5)cc4)CC3)c2c1 [II-69, 4-[4-(6-Methoxy-2-oxo-2H-chromen-4-ylamino)-piperidin-1-ylmethyl]-N-(2-piperidin-1-yl-ethyl)-benzamide; Double TFA Salt]
O=c1cc(NC2CCN(Cc3ccc4c(c3)OCO4)CC2)c2cc(OC(F)F)ccc2o1 [II-125, 4-(1-Benzo[1,3]dioxol-5-ylmethyl-piperidin-4-ylamino)-6-difluoromethoxy-chromen-2-one]
COC(=O)c1c(NC2CCN(Cc3ccc4ccccc4c3)CC2)c2cc(Cl)ccc2n(C)c1=O [Compound V-30, 6-Chloro-1-methyl-4-(1-naphthalen-2-ylmethyl-piperidin-4-ylamino)-2-oxo-1,2-dihydro-quinoline-3-carboxylic acid methyl ester]
CC(c1ccc2ncccc2c1)N1CCC(Nc2cc(=O)oc3ccc(Cl)cc23)CC1 (racemic) [II-106, 6-Chloro-4-[1-(1-quinolin-6-yl-ethyl)-piperidin-4-ylamino]-chromen-2-one]
O=c1cc(NC2CCN(Cc3ccc4c(c3)OCO4)CC2)c2cc(Cl)ccc2o1 [II-4, 4-(1-Benzo[1,3]dioxol-5ylmethyl-piperidin-4-ylamino)-6-chloro-chromen-2-one]
N#Cc1c(NC2CCN(Cc3ccc4occc4c3)CC2)c2cc(Cl)ccc2[nH]c1=O [Compound V-23, 4-(1-Benzofuran-5-ylmethyl-piperidin-4-ylamino)-6-chloro-2-oxo-1,2-dihydro-quinoline-3-carbonitrile]
COc1ccc2oc(=O)cc(NC3CCN(Cc4ccc(OCCCN(C)C)cc4)CC3)c2c1 [II-91]
COc1ccc2oc(=O)cc(NC3CCN(Cc4ccc(OC)c(F)c4)CC3)c2c1 [II-70, 4-[1-(3-Fluoro-4-methoxy-benzyl)-piperidin-4-ylamino]-6-methoxy-chromen-2-one trifluoroacetate]
O=c1cc(NC2CCN(Cc3cc(Cl)c4occc4c3)CC2)c2cc(Cl)ccc2o1 [II-93, 6-Chloro-4-[1-(7-chloro-benzofuran-5-ylmethyl)-piperidin-4-ylamino]-chromen-2-one]
O=c1cc(NC2CCN(Cc3ccc4c(c3)OCO4)CC2)c2cc(C(F)(F)F)ccc2o1 [II-82, 4-(1-Benzo[1,3]dioxol-5-ylmethyl-piperidin-4-ylamino)-6-trifluoromethyl-chromen-2-one]
Cn1c(=O)cc(NC2CCN(C/C=C/c3ccccc3)CC2)c2ccccc21 [Compound V-47, 1-Methyl-4-[1-(3-phenyl-allyl)-piperidin-4-ylamino]-1H-quinolin-2-one]
CCc1ccc2c(c1)c(NC1CCN(Cc3ccc4c(c3)OCO4)CC1)cc(=O)n2C [Compound V-13, 4-(1-Benzo[1,3]dioxol-5-ylmethyl-piperidin-4-ylamino)-6-ethyl-1-methyl-1H-quinolin-2-one]
O=c1cc(NC2CCN(Cc3ccc4ccoc4c3)CC2)c2cc(Cl)ccc2o1 [II-36, 4-(1-Benzofuran-6-ylmethyl-piperidin-4-ylamino)-6-chloro-chromen-2-one]
CC(c1ccc2c(c1)OCO2)N1CCC(Nc2cc(=O)oc3ccc(Cl)cc23)CC1 (centres unmarked) [II-60, 4-[1-(1-Benzo[1,3]dioxol-5-yl-ethyl)-piperidin-4-ylamino]-6-chloro-chromen-2-one]
Cc1ccc2oc(=O)cc(NC3CCN(Cc4ccc5c(c4)OCO5)CC3)c2c1 [II-3, 4-(1-Benzo[1,3]dioxol-5-ylmethyl-piperidin-4-ylamino)-6-methyl-chromen-2-one]
COc1ccc2c(c1)c(NC1CCN(Cc3ccc4c(c3)OCO4)CC1)c(C(=O)N(C)C)c(=O)n2C [Compound V-60, 4-(1-Benzo[1,3]dioxol-5-ylmethyl-piperidin-4-ylamino)-6-methoxy-1-methyl-2-oxo-1,2-dihydro-quinoline-3-carboxylic acid dimethylamide]
CN(C)C(=O)c1c(NC2CCN(Cc3ccc4occc4c3)CC2)c2cc(Cl)ccc2n(C)c1=O [Compound V-40, 4-(1-Benzofuran-5-ylmethyl-piperidin-4-ylamino)-6-chloro-1-methyl-2-oxo-1,2-dihydro-quinoline-3-carboxylic acid dimethylamide]
COC(=O)c1c(NC2CCN(Cc3ccc4ccccc4c3)CC2)c2cc(Cl)ccc2[nH]c1=O [Compound V-37, 6-Chloro-4-(1-naphthalen-2-ylmethyl-piperidin-4-ylamino)-2-oxo-1,2-dihydro-quinoline-3-carboxylic acid methyl ester]
COc1ccc2oc(=O)cc(N[C@H]3CCN(Cc4ccc5c(c4)OCO5)C[C@H]3C)c2c1 (stereo in doubt) [II-53, 4-(1-Benzo[1,3]dioxol-5-ylmethyl-3-methyl-piperidin-4-ylamino)-6-methoxy-chromen-2-one]
COc1ccc(CN2CCC(Nc3c(C#N)c(=O)n(C)c4ccc(Cl)cc34)CC2)cc1F [Compound V-32, 6-Chloro-4-[1-(3-fluoro-4-methoxy-benzyl)-piperidin-4-ylamino]-1-methyl-2-oxo-1,2-dihydro-quinoline-3-carbonitrile]
CCc1ccc2c(c1)c(NC1CCN(Cc3ccc4occc4c3)CC1)cc(=O)n2CC [Compound V-28, 4-(1-Benzofuran-5-ylmethyl-piperidin-4-ylamino)-1,6-diethyl-1H-quinolin-2-one]
CCOc1ccc(CN2CCC(Nc3cc(=O)oc4ccc(OC)cc34)CC2)cc1 [II-80, 4-[1-(4-Ethoxy-benzyl)-piperidin-4-ylamino]-6-methoxy-chromen-2-one trifluoroacetate]
O=c1cc(NC2CCN(Cc3ccc4c(c3)OCO4)CC2)c2cc(Cl)ccc2[nH]1 [Compound V-11, 4-(1-Benzo[1,3]dioxol-5-ylmethyl-piperidin-4-ylamino)-6-chloro-1H-quinolin-2-one]
CCc1ccc2oc(=O)cc(NC3CCN(Cc4ccc5c(c4)OCO5)CC3)c2c1 [II-63, 4-(1-Benzo{1,3}dioxol-5-ylmethyl-piperidin-4-ylamino)-6-ethyl-chromen-2-one]
